Measured values from patent publication US20240374646A1, “COMPOSITION FOR INHIBITING INFLAMMATION OR AGING OF STEM CELLS, AND METHOD FOR INHIBITING INFLAMMATION OR AGING BY USING SAME” (MITOIMMUNE THERAPEUTICS INC., priority 2021, published 2024).

How the values were obtained:
[1] = system: TNF-α/IFN-γ-exposed hPD-MSCs; assay: Reactive oxygen species (ROS) assay, H2DCFDA; assay type: cell-based, human; conditions: TNF-α/IFN-γ-exposed MSC control (TI) treated with compound; FIG. 3F
Procedure: To investigate ROS levels, a total of 5×10^3 hPD-MSCs were seeded into each well of a 96-well black-microplate (SPL, 33196) and cultured for 24 hours, and then the cells were washed and cultured in a pre-warmed Hanks' balanced salt solution (14025092, ThermoFisher) containing 50 μM H2DCFDA (D399; ThermoFisher) for 30 minutes. Fluorescence intensity at a wavelength of 555 nm was measured at a wavelength of 488 nm using a Multi-Mode MicroPlate Reader (FlexStation 3, Molecular Devices, Silicon Valley, CA, USA), and the results are shown in FIG. 3F.

IL-1β = assay: Real-time qPCR, SASP factor IL-1β; assay type: cell-based, human; conditions: vs MSCs exposed to TNF-α/IFN-γ; FIG. 4A
Procedure: Real-time qPCR was performed using an Easy-Spin Total RNA Kit (iNtRON, Seongnam, Korea) to extract total RNA from hPD-MSCs and RNA concentration was adjusted to 100 ng/μL using a microplate spectrophotometer (Epoch™ Microplate Spectrophotometer, BioTek, Winooski, VT, USA), and the extracted RNA was reverse transcribed into cDNA using RT PreMix (dT20) (Bioneer, Seoul, Korea) using a SimpliAmp Thermal Cycler (Life Technologies, Carlsbad, CA, USA). Real-time qPCR was performed using a real-time PCR machine (CFX Connect, Bio-Rad, Hercules, CA, USA), SYBR Green Supermix (Bio-Rad) and the relevant primers, and all experiments were performed in triplicate for statistical analysis.
In the present experiment, the expression of IL-1β, IL-6, and monocyte chemotactic protein-1 (MCP-1), which are SASP-associated factors of the untreated MSC control, the TNF-α/IFN-γ-exposed MSC control (TI), and the experimental group treated with the example compound in the TNF-α/IFN-γ-exposed MSC control was analyzed by real-time qPCR. As the real-time qPCR analysis method, the same method described in Experimental Example 1-2 above was used, and the results are shown in FIGS. 4A to 4C.

[2] = system: TNF-α/IFN-γ-exposed hPD-MSCs; assay: Cell viability at each concentration of the example compound; assay type: cell-based; conditions: TNF-α/IFN-γ exposure, different concentrations of compound; FIG. 1D
Procedure: Human placenta-derived mesenchymal stem cells (hPD-MSCs) were harvested from inside the placental chorion, and the harvested cells were cultured in an alpha-Minimum Essential medium (Cytiva, Marlborough, MA, USA) supplemented with 10% fetal bovine serum (ThermoFisher, Waltham, MA, USA), 1% penicillin/streptomycin (ThermoFisher, Waltham, MA, USA), 25 ng/mL human fibroblast growth factor-4 (Peprotech, Rocky Hill, NJ, USA) and 1 μg/mL heparin (Merck, San Francisco, CA, USA). A total of 1×10^5 hPD-MSCs were seeded in a cell culture dish (90×20 mm) (SPL, Pocheon, Korea) and cultured at 37° C. in an incubator containing 5% CO2. The cells were subcultured every 4 days until reaching 70 to 80% confluency. Expanded cells were obtained at passage 12 or 13. During subculture, viable cells were stained with Trypan blue (Merck) and the number of cells was manually counted.
In a passage for sample extraction, hPD-MSCs were cultured for 24 hours in a medium with or without an example compound (5-[(1,1-dioxido-4-thiomorpholinyl)methyl]-2-phenyl-N-(tetrahydro-2H-pyran-4-yl)-1H-indole-7-amine) while including 2.5 ng/mL TNF-α (Peprotech) and 25 ng/mL IFN-γ (Peprotech).
Meanwhile, upon exposure to TNF-α/IFN-γ and treatment with the example compound, cell viability was evaluated, and the results are shown in FIG. 1D.

[3] = system: TNF-α/IFN-γ-exposed hPD-MSCs; assay: Mitochondrial membrane potential and distribution, MitoSpy confocal microscopy; assay type: cell-based, human; conditions: TNF-α/IFN-γ-exposed MSCs treated with compound; FIG. 2A
Procedure: hPD-MSCs were stained with MitoSpy Orange CMTMRos (BioLegend, SanDiego, CA, USA) to observe mitochondrial membrane potential, and stained with […]. After 72 hours with or without […] treatment, hPD-MSCs were passaged on a gelatin-coated cover glass (Sigma, St. Louis, Missouri, USA) in 12-well plates (SPL) and stained 24 hours later. The hPD-MSCs were cultured in α-MEM containing 250 nM MitoSpy Green FM and 250 nM MitoSpy Orange CMTMRo for 30 minutes. Stained hPD-MSCs were fixed with 4% paraformaldehyde (Alfa Aesar, Ward Hill, Massachusetts, USA) for 5 minutes, and then stained with 1 μg/mL Hoechst 33342® (ThermoFisher) at room temperature for 5 minutes. Finally, the cover glass was mounted on a slide glass using a mounting solution (VectaShield, ThermoFisher) and samples were imaged with a confocal microscope (LSM880; Zeiss, Oberkochen, Germany). The fluorescence intensities of confocal images were quantified using ZEN 2018 Black and Blue edition software (Zeiss). […]

[4] = system: TNF-α/IFN-γ-exposed hPD-MSCs; assay: Oxygen consumption rate (OCR), Seahorse XFp Extracellular Flux Analyzer; assay type: cell-based, human
Procedure: An oxygen consumption rate was measured to assess a mitochondrial metabolic state using a Seahorse XFp Extracellular Flux Analyzer (Agilent, Santa Clara, CA, USA). A total of 10,000 cells/well were seeded in Seahorse XFp cell culture miniplates and cultured with or without TNF-α, IFN-γ and the example compound for 24 hours prior to analysis. The growth medium was replaced with a Seahorse XF base medium containing 2 mM L-glutamine, 5.5 mM D-glucose, and 1 mM sodium pyruvate according to the composition of α-MEM. Cells were treated with 1 μM oligomycin, 0.5 μM FCCP, and 0.5 μM rotenone/antimycin A during the assay. The OCR was measured for 2 minutes after mixing for 3 minutes, and this process was repeated 12 times. A basal OCR was normalized according to the protein concentration determined by BCA analysis.
The OCRs of the untreated MSC control, the TNF-α/IFN-γ-exposed MSC control (TI), and the experimental group treated with the example compound in the TNF-α/IFN-γ-exposed MSC control were measured by the above method, and the results are shown in FIG. 3A.
The basal respiration, ATP production amount, proton leakage, and spare respiratory capacity (SRC) for each of the above samples are shown in FIGS. 3B to 3E.

O=S1(=O)CCN(Cc2cc(NC3CCOCC3)c3[nH]c(-c4ccccc4)cc3c2)CC1 [example compound, 5-[(1,1-dioxido-4-thiomorpholinyl)methyl]-2-phenyl-N-(tetrahydro-2H-pyran-4-yl)-1H-indole-7-amine]
ROS value [1]: reduced to the level of the untreated MSC control | decrease of IL-1β expression (IL-1β): about 55% | cell viability [2]: high | mitochondrial membrane potential and distribution [3]: restored to quiescence | spare respiratory capacity (SRC) ([4]; TNF-α/IFN-γ-exposed MSC control treated with compound, FIG. 3E): almost the same value as the untreated MSC control | oxygen consumption rate (OCR) ([4]; TNF-α/IFN-γ-exposed MSCs, 24 hours, FIG. 3A): restored TNF-α/IFN-γ-exposed MSCs to quiescence | decrease of basal respiration ([4]; vs TNF-α/IFN-γ-exposed MSC control (TI), FIG. 3B): about 80 pmol/min/cell | downregulation of oxygen consumption amount for ATP production ([4]; vs TNF-α/IFN-γ-exposed MSC control (TI), FIG. 3C): about 70 pmol/min/cell
